We go through nine compounds from US20250313546A1, “NUCLEIC ACID BINDERS” (UNIVERSITY OF STRATHCLYDE, priority 2022, published 2025).

Assay [1] concerns Escherichia coli (ATCC 25922). Description: Antibacterial MIC, broth microdilution (CLSI). The following applies: Escherichia coli, ATCC25922; read-out: MIC80 E. coli. The format is cell-based.
The test system of assay [2] is T. vaginalis. Put plainly: Trichomonas resorufin assay. The class given is cell-based. The note with it: for pIC50: Trichomonas vaginalis, read-out: IC50 T. vaginalis; for T. vaginalis Selectivity Indices, Group / T. vaginalis Selectivity Index (SI): SI, IC50 (μM)/IC50 (μM), HEK293 cytotoxicity; for T. vaginalis Selectivity Index (SI): numeric value.
For assay [3], the system named is C. neoformans (F10025). The following applies: Cryptococcus neoformans, read-out: MIC99 C. neoformans.
In assay [4] the test system is Staphylococcus aureus (ATCC 43300). Description: Antibacterial MIC, broth microdilution (CLSI). The class given is cell-based. The following applies: for S. aureus Selectivity Indices, Group / S. aureus Selectivity Index (SI): SI, IC50 (μM)/MIC80 (μM), HEK293 cytotoxicity; for MIC80: Staphylococcus aureus, ATCC43300, read-out: MIC80 S. aureus; for S. aureus Selectivity Index (SI): numeric value. A general note: Dilution methods test growth across graded concentrations, often in twofold steps.

Assay [5] relates to Enterococcus faecalis (ATCC 51299). Description: Antibacterial MIC, broth microdilution (CLSI). The format is cell-based. The following applies: for MIC80: Enterococcus faecalis, ATCC51299, read-out: MIC80 E. faecalis.
Assay [6] has as its system Genomic double stranded DNA (salmon). Put plainly: Fluorescence intercalator displacement (FID) assay, SYBR-safe probe. The following applies: 20 μM compound, 30° C., lower % = stronger binding. In short, it runs like this:
(§1)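 Compound at 20 μM mixed with 3.76 ng/mL polyAU dsRNA or salmon genomic dsDNA and 12500-fold diluted SybrSafe in 1 mM phosphate buffer pH 7.4, then heated to 30 °C and fluorescence read. Reduction is expressed as normalised %, with nucleic acid plus probe as maximum and probe alone as minimum.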

Assay [7] has as its system PolyAU double stranded RNA. The assay is described as above. The following applies: 20 μM compound, 30° C., lower % = stronger binding. Summed up:
as §1

For assay [8], the system named is A. fumigatus A1160 (MFIG001). The following applies: Aspergillus fumigatus, read-out: MIC99 A. fumigatus A1160.
Assay [9] concerns Candida glabrata (ACPF3309). The following applies: Nakaseomyces glabratus, read-out: MIC99 Candida glabrata.
Setting [10] is: SI, IC50 (μM)/MIC80 (μM), HEK293 cytotoxicity, Quaternary ammoniums.

pIC50: −log10 of the molar value. ≈ marks a conversion by molar mass, not a printed value.

What is called MIC80 is the lowest concentration that inhibits either 80% of growth or 80% of the strains tested, depending on the study. As a reminder, the pIC50 is the IC50 on a negative log10 scale, so that one unit is a factor of ten. The MIC99 is an inhibitory concentration at the 99% level, which refers to growth in some studies and to a panel of isolates in others. Take `COc1ccc(/C=C/c2ccc(C(=O)Nc3cc(C(=O)Nc4cc(C(=O)NCCC(=N)NC(C)C)n(C)c4)n(C)c3)cc2)cc1` [Ia18, (E)-N-(3-imino-3-(isopropylamino)propyl)-4-(4-(4-(4-methoxystyryl)benzamido)-1-methyl-1H-pyrrole-2-carboxamido)-1-methyl-1H-pyrrole-2-carboxamide]: the figures for the MIC80 in assay [1], in assay [4] and in [5] were 25 to 100 µM (≈ 15.2 to 61 µg/mL), 5 to 25 µM (≈ 3.05 to 15.2 µg/mL) and 5 to 25 µM (≈ 3.05 to 15.2 µg/mL), respectively. Moreover, the pIC50 in assay [2] is 4.30 to 5.30. Besides, the MIC99 is 5 to 25 µg/mL (≈ 8.2 to 41 µM) in assay [3] and greater than 50 µg/mL in assay [8]. Besides, the “S. aureus Selectivity Indices, Group” value in assay [4] (Alkyl Amidines and NH Pyrroles) is given as “B (Group B: 3 < SI <= 5)”. The “% Normalised Fluorescence with gDNA” value in [6] is 6%. For the same compound, the “% Normalised Fluorescence with polyAU RNA” value in assay [7] was 9%.

Regarding `Cn1cc(NC(=O)c2cc(NC(=O)c3ccc(/C=C/c4cnc5ccccc5c4)cc3)cn2C)cc1C(=O)NCCC(=N)N1CCSCC1` [Ib7, (E)-N-(3-imino-3-thiomorpholinopropyl)-1-methyl-4-(1-methyl-4-(4-(2-(quinolin-3-yl)vinyl)benzamido)-1H-pyrrole-2-carboxamido)-1H-pyrrole-2-carboxamide], the values for the MIC80 in assay [1], in assay [4] and in [5] were greater than 100 µM, less than 5 µM and less than 5 µM, respectively. For the same compound, the “T. vaginalis Selectivity Indices, Group” value in assay [2] (Alkyl Amidines and NH Pyrroles) was “B (Group B: 8 < SI <= 16)”. Moreover, in assay [2], the pIC50 is 5.30 to 6.00. Also, the MIC99 in assay [9] and in assay [3] was 5 to 25 µg/mL (≈ 7.41 to 37 µM) throughout. Also, the “S. aureus Selectivity Indices, Group” value in assay [4] (Alkyl Amidines and NH Pyrroles) is “D (D: SI > 10)”. For the same compound, the “S. aureus Selectivity Index (SI)” value in assay [4] is on record as 26. Besides, the “E. faecalis Selectivity Indices, Group” value in assay [5] (SI, IC50 (μM)/MIC80 (μM), HEK293 cytotoxicity, Alkyl Amidines and NH Pyrroles) was “C (Group C: 5 < SI <= 10)”. In assay [6], the “% Normalised Fluorescence with gDNA” value is on record as 22%. In addition, in [7], the “% Normalised Fluorescence with polyAU RNA” value was found to be 7%.

With `CC[N+](C)(C)CCNC(=O)c1cc(NC(=O)c2cc(NC(=O)c3ccc(/C=C/c4cnc5ccccc5c4)cc3)cn2C)cn1C` [Ic1, (E)-N-ethyl-N,N-dimethyl-2-(1-methyl-4-(1-methyl-4-(4-(2-(quinolin-3-yl)vinyl)benzamido)-1H-pyrrole-2-carboxamido)-1H-pyrrole-2-carboxamido)ethan-1-aminium], the MIC80 in assay [1] was greater than 100 µM; in [4] it was less than 5 µM; in assay [5], less than 5 µM. Further, the pIC50 in assay [2] is greater than 6.00. The MIC99 in [9] is 5 to 25 µg/mL; in assay [3], 5 to 25 µg/mL; in assay [8] it was greater than 50 µg/mL.

On to `CCC[N+](C)(C)CCNC(=O)c1cc(NC(=O)c2cc(NC(=O)c3ccc(/C=C/c4cnc5ccccc5c4)cc3)cn2C)cn1C` [Ic2, (E)-N,N-dimethyl-N-(2-(1-methyl-4-(1-methyl-4-(4-(2-(quinolin-3-yl)vinyl)benzamido)-1H-pyrrole-2-carboxamido)-1H-pyrrole-2-carboxamido)ethyl)propan-1-aminium], for which the MIC80 in assay [1] was greater than 100 µM; in assay [4] it was less than 5 µM; in assay [5] it was less than 5 µM. In assay [2], the pIC50 is greater than 6.00. Moreover, the MIC99 in [9] is less than 5 µg/mL; in assay [3] it was 5 to 25 µg/mL; in [8] it was greater than 50 µg/mL.

For the compound `CCCC[N+](C)(C)CCNC(=O)c1cc(NC(=O)c2cc(NC(=O)c3ccc(/C=C/c4cnc5ccccc5c4)cc3)cn2C)cn1C` [Ic3, (E)-N,N-dimethyl-N-(2-(1-methyl-4-(1-methyl-4-(4-(2-(quinolin-3-yl)vinyl)benzamido)-1H-pyrrole-2-carboxamido)-1H-pyrrole-2-carboxamido)ethyl)butan-1-aminium], the MIC80 in assay [1] is greater than 100 µM; in assay [4], less than 5 µM; in [5], less than 5 µM. The “T. vaginalis Selectivity Indices, Group” value in [2] (Quaternary ammoniums) is recorded as “D (Group D: SI > 3)”. Further, the “T. vaginalis Selectivity Index (SI)” value in [2] is 6. In [2], the negative-log IC50 (pIC50) is 5.30 to 6.00. Besides, the values for the MIC99 in assay [9], in assay [3] and in [8] were 5 to 25 µg/mL, 5 to 25 µg/mL and greater than 50 µg/mL, respectively. For the same compound, the “E. faecalis Selectivity Indices, Group” value in assay [5] (setting [10]) is given as “D (Group D: SI > 5)”. Further, the “E. faecalis Selectivity Index (SI)” value in [5] (SI, IC50 (μM)/MIC80 (μM), HEK293 cytotoxicity, numeric value) is 11.

For `CCCCC[N+](C)(C)CCNC(=O)c1cc(NC(=O)c2cc(NC(=O)c3ccc(/C=C/c4cnc5ccccc5c4)cc3)cn2C)cn1C` [Ic4, (E)-N,N-dimethyl-N-(2-(1-methyl-4-(1-methyl-4-(4-(2-(quinolin-3-yl)vinyl)benzamido)-1H-pyrrole-2-carboxamido)-1H-pyrrole-2-carboxamido)ethyl)pentan-1-aminium], the MIC80 in [1] was greater than 100 µM; in assay [4] it was less than 5 µM; in assay [5], less than 5 µM. Besides, in assay [2] (Quaternary ammoniums), the “T. vaginalis Selectivity Indices, Group” value is “D (Group D: SI > 3)”. Further, the “T. vaginalis Selectivity Index (SI)” value in assay [2] was determined as 4. Also, the pIC50 in assay [2] is 5.30 to 6.00. The MIC99 in [9] was 5 to 25 µg/mL; in assay [3], 5 to 25 µg/mL; in [8] it was greater than 50 µg/mL. The “S. aureus Selectivity Indices, Group” value in assay [4] (Quaternary ammoniums) is listed as “D (Group D: SI > 10)”. For the same compound, the “S. aureus Selectivity Index (SI)” value in assay [4] was found to be 11. Further, the “E. faecalis Selectivity Indices, Group” value in assay [5] (setting [10]) is listed as “C (Group C: 2 < SI <= 5)”.

Consider `CCCCCCCC[N+](C)(C)CCNC(=O)c1cc(NC(=O)c2cc(NC(=O)c3ccc(/C=C/c4cnc5ccccc5c4)cc3)cn2C)cn1C` [Ic7, (E)-N,N-dimethyl-N-(2-(1-methyl-4-(1-methyl-4-(4-(2-(quinolin-3-yl)vinyl)benzamido)-1H-pyrrole-2-carboxamido)-1H-pyrrole-2-carboxamido)ethyl)octan-1-aminium], for which the values for the MIC80 in assay [1], in assay [4] and in assay [5] were greater than 100 µM, less than 5 µM and greater than 100 µM, respectively. The pIC50 in [2] is 4.30 to 5.30. Besides, the MIC99 in [9] is 5 to 25 µg/mL; in assay [3], 5 to 25 µg/mL; in [8], greater than 50 µg/mL. Also, the “S. aureus Selectivity Indices, Group” value in [4] (Quaternary ammoniums) is given as “D (Group D: SI > 10)”. Besides, the “S. aureus Selectivity Index (SI)” value in [4] amounted to 13.

`CCCCCCCCCCCCCCC[N+](C)(C)CCNC(=O)c1cc(NC(=O)c2cc(NC(=O)c3ccc(/C=C/c4cnc5ccccc5c4)cc3)cn2C)cn1C` [Ic14, (E)-N,N-dimethyl-N-(2-(1-methyl-4-(1-methyl-4-(4-(2-(quinolin-3-yl)vinyl)benzamido)-1H-pyrrole-2-carboxamido)-1H-pyrrole-2-carboxamido)ethyl)pentadecan-1-aminium]: the pIC50 in assay [2] was 4.30 to 5.30. Moreover, the MIC99 in assay [9] was 25 to 50 µg/mL; in assay [3], greater than 50 µg/mL; in [8] it was greater than 50 µg/mL.

As for `CCCCCCCCCCCCCCCC[N+](C)(C)CCNC(=O)c1cc(NC(=O)c2cc(NC(=O)c3ccc(/C=C/c4cnc5ccccc5c4)cc3)cn2C)cn1C` [Ic15, (E)-N,N-dimethyl-N-(2-(1-methyl-4-(1-methyl-4-(4-(2-(quinolin-3-yl)vinyl)benzamido)-1H-pyrrole-2-carboxamido)-1H-pyrrole-2-carboxamido)ethyl)hexadecan-1-aminium], in assay [2], the pIC50 was 4.30 to 5.30. Further, the MIC99 in [9] was greater than 50 µg/mL; in assay [3], 25 to 50 µg/mL; in assay [8], greater than 50 µg/mL.
